# From PMC3904085 (Frontiers in Neuroscience, 2014)
# Read-outs that look alike come from different tables or passages of the source.
# Columns and labels:
# human OX2 receptors [1] = target: T1, human OX2 receptors (Homo sapiens, UniProt O43614); assay: biochemical
# T1 sequence (O43614 1-444): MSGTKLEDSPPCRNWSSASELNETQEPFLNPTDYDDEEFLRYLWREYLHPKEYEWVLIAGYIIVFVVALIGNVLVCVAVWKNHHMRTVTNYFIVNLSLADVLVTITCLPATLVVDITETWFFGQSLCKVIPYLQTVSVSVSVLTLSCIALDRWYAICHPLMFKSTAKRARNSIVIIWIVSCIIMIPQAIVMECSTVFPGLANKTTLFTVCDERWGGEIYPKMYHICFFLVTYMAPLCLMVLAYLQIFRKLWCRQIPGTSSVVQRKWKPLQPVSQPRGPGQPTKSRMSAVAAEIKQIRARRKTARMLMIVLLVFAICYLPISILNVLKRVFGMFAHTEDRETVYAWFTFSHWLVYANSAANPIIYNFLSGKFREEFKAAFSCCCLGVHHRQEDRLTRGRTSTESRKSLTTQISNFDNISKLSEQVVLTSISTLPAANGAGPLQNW
# Procedure: Briefly, the membranes were isolated by homogenizing cell pellet in 30 ml (w/v) 50 mM Tris buffer (pH 7.4) containing Roche Complete EDTA free protease tablets. […] All binding studies were conducted at a final volume of 200 μl. […] Then 300 μl of this solution was placed in column B on a Nunc polypropylene 96-well plate (Thermo Fisher Scientific, Inc., Rochester, NY). Serial dilutions were then made using a Biomek 2000 (Beckman Coulter, Inc., Fullerton, CA) from a starting concentration of 40 μM. […] All binding was terminated by rapid filtration using a TOMTEC 96-well cell harvester (Hamden, CT) through GF/A filters that had been presoaked with 0.3% polyethyleneimine. The filters were washed with 5.0 ml ice-cold 50 mM Tris buffer (pH 7.4) and air-dried overnight. […] Protein concentrations were measured using Coomassie Protein Plus Assay Reagent (Pierce, Rockford, IL) and serum albumin standards.
# Sprague–Dawley rats = assay: DRL 72-s schedule of reinforcement in rats; format: in vivo, rat; details: for Lever Presses Mean / Reinforcers Mean: HSD rats DRL-72-s, raw data
# Text: Each chamber was enclosed in a melamine sound-attenuating cubicle. A white noise generator provided masking noise. The interior of each chamber consisted of three levers mounted on one wall with a house light mounted on the opposite wall. The house light was turned on at initiation of each test session and was turned off at the termination of each session. A water access port was situated next to the lever in the middle of the wall, wherein a reinforced response caused a clicker apparatus to sound paired with a dipper (0.02-ml cup) to be lifted from a water trough to an opening in the floor of the access port for 4 s.
# Rats were initially trained under an alternative fixed ratio 1 water reinforcement schedule with a fixed 1-min time schedule for automatic reinforcement. Thus, each response was reinforced, with water also provided every minute in the absence of a response. […] Following acquisition of lever-pressing behavior, rats were trained daily on DRL 18-s sessions for ~2 weeks, following which they were advanced to DRL 72-s sessions. Responding on these sessions became stable after ~8 weeks. Experimental test sessions lasted for 1 h and were conducted 5 days/week during light hours.
# (§1) Drugs were administered to the animals once or twice weekly with at least 1 week between subsequent drugs to minimize possible carryover effects. Drug treatments were administered on Tuesdays and Fridays. No treatments were administered on other test days. Wednesdays were control days. “Control” behavior was calculated as the pooled mean lever presses or reinforcers received during Wednesday sessions across all Wednesdays for the duration of each study. Performance was normalized to percent of control by dividing total responses (or reinforcers) for each drug or vehicle treatment by the mean number of responses (reinforcers) in the respective pooled control condition, multiplied by 100.
# (§2) The data analyses were conducted on the raw response and reinforcement data. All behavioral data are expressed as the mean ± s.e.m. normalized to the control condition.
# C57Bl/6 mice = assay: DRL 36-s schedule of reinforcement in wild-type mice; format: in vivo, mouse; details: for Lever Presses Mean / Reinforcers Mean: WT mice DRL-36-s, raw data
# Text: (§3) The levers in these chambers were mounted on one wall with an adjacent food magazine next to the lever in the middle of the wall. A reinforced response caused a clicker apparatus to activate and the pellet feeder to deposit one 45-mg sucrose pellet (BioServ, Frenchtown, NJ) into the food magazine. The house light, which was mounted on the ceiling, was turned on when the session began, remained on throughout the entire session, and was turned off at the end of the session. Each experimental chamber was enclosed in a melamine sound-attenuating cubicle and equipped with a white noise generator to provide masking noise.
# (§4) Each mouse was initially trained under a variable time 60-s operant schedule for 5 days, followed by fixed ratio-1 ratio schedule for 5 days. After the mice had acquired lever-pressing behavior, they were trained during daily DRL 6-s sessions for ~1 week, then mice progressed through weekly ascending DRL requirements (12, 18, 24, 30 s) before moving to DRL 36-s sessions. […] Experimental sessions lasted for 45 min and were conducted 5 days/week during light hours.
# as §1, §2
# [2] = test system: mice lacking OX2 receptors; assay: DRL 36-s schedule of reinforcement in OX2 KO mice; format: in vivo, mouse; details: for Lever Presses Mean / Reinforcers Mean: OX2 KO mice DRL-36-s, raw data
# Text: Rats were acclimated to housing conditions for 4 days, followed by sham dosing once daily for 3 days, prior to the experiment. For DRL experiments, male Sprague–Dawley rats weighing between 300 and 350 g at the beginning of the behavioral experiments (Holtzman, Madison, WI) were housed in pairs. For mouse DRL studies, male C57Bl/6 mice (Taconic Farms, Hudson, NY) or mice lacking either OX1 or OX2 receptors, around 8 weeks of age, were obtained from private breeding colonies at Taconic Farms (Hudson, NY). OX1 and OX2 receptor knockout mice were generated using in vitro fertilization of embryos in C57Bl/6 female mice with sperm harvested from male mice obtained from the University of Texas Southwestern Medical Center (Dallas, TX), and backcrossed for at least 10 generations. Mice and rats were housed in separate colony rooms, which were maintained at 22°C and 60% relative humidity. For rat DRL experiments, water was available for a 20-min period following the daily behavioral session. Based on recommendations from the animal care and use committee, the mouse DRL assay was developed using food deprivation rather than water deprivation. […] All experiments were conducted during the light cycle and in compliance with the Guide for the Care and Use of Laboratory Animals under protocols approved by a local animal care and use committee.
# as §3, §4, §1, §2
# human OX2 receptors [3] = target: T1, human OX2 receptors; assay: Intracellular calcium mobilization (FLIPR), antagonist mode vs EC70 orexin-A; format: cell-based; design: expressed in transfected cells; details: HEK293 cells, mean ± s.e.m. (n); for Kb: read-out: Functional antagonist activity, Kb hOX2
# [4] = C57Bl/6 mice DRL-36-s, significant at 100 mg/kg (Figure 5B legend)
# [5] = dose 100 mg/kg PO, listed as almorexant inactive, 100 mg/kg
# [6] = dose 100 mg/kg, listed as almorexant inactive
smiles,measurement,setting,value
CNC(=O)[C@@H](c1ccccc1)N1CCc2cc(OC)c(OC)cc2[C@@H]1CCc1ccc(C(F)(F)F)cc1 [Almorexant (S)],Ki,human OX2 receptors [1],6.9 ± 0.18 nM
same,Lever Presses Mean,Sprague–Dawley rats; dose 30 mg/kg PO,42.73
same,Reinforcers Mean,Sprague–Dawley rats; dose 30 mg/kg PO,13.55
same,Lever Presses Mean,Sprague–Dawley rats; dose 60 mg/kg PO,51.91
same,Reinforcers Mean,Sprague–Dawley rats; dose 60 mg/kg PO,17.91
same,Lever Presses Mean,Sprague–Dawley rats; dose 100 mg/kg PO,45.09
same,Reinforcers Mean,Sprague–Dawley rats; dose 100 mg/kg PO,19.55
same,"Reduction in lever presses emitted, in words","Sprague–Dawley rats; rats DRL-72-s, PO, 30–100 mg/kg",did not reach statistical significance
same,"Reinforcers received, effect in words","Sprague–Dawley rats; rats DRL-72-s, PO, significant at 100 mg/kg (Figure 5A legend)",significant increase
same,Doses with antidepressant-like efficacy in the rat DRL-72 sec model,Sprague–Dawley rats; reduced lever presses with increased reinforcers,100 mg/kg
same,Lever presses emitted,C57Bl/6 mice; [4],47 % of control
same,Reinforcers received,C57Bl/6 mice; [4],> 400 % of control
same,Lever Presses Mean,C57Bl/6 mice; dose 10 mg/kg,174.25
same,Reinforcers Mean,C57Bl/6 mice; dose 10 mg/kg,14.00
same,Lever Presses Mean,C57Bl/6 mice; dose 20 mg/kg,161.13
same,Reinforcers Mean,C57Bl/6 mice; dose 20 mg/kg,15.50
same,Lever Presses Mean,C57Bl/6 mice; dose 40 mg/kg,172.38
same,Reinforcers Mean,C57Bl/6 mice; dose 40 mg/kg,20.25
same,Lever Presses Mean,C57Bl/6 mice; dose 100 mg/kg,114.88
same,Reinforcers Mean,C57Bl/6 mice; dose 100 mg/kg,27.13
same,Lever Presses Mean,[2]; dose 20 mg/kg,162.63
same,Reinforcers Mean,[2]; dose 20 mg/kg,28.75
same,Lever Presses Mean,[2]; dose 40 mg/kg,179.25
same,Reinforcers Mean,[2]; dose 40 mg/kg,20.50
same,Lever Presses Mean,[2]; dose 100 mg/kg,158.13
same,Reinforcers Mean,[2]; dose 100 mg/kg,24.75
same,"Antidepressant-like effect in DRL, in words","[2]; mice lacking OX2 receptors, up to 100 mg/kg",completely abolished
same,Kb,human OX2 receptors [3],1.73 ± 0.35 nM
CNC(=O)[C@@H](c1ccccc1)N1CCc2cc(OC)c(OC)cc2[C@@H]1CCc1ccc(C(F)(F)F)cc1 [Almorexant (R)],"Receptor binding affinity, Ki OX2","human OX2 receptors [1]; HEK293 membranes, [125I]-orexin A, 90 min, mean ± s.e.m. (n)",inactive
same,Ki,"human OX2 receptors [1]; read-out: Receptor binding affinity, Ki OX2, HEK293 membranes, [125I]-orexin A, 90 min, mean ± s.e.m. (n)",> 10000 nM
same,Lever Presses Mean,Sprague–Dawley rats; [5],64.73
same,Reinforcers Mean,Sprague–Dawley rats; [5],15.27
same,"Effect on DRL behavior, in words","Sprague–Dawley rats; rats DRL-72-s, 100 mg/kg",no effect on behavior
same,"Effect on DRL behavior, in words","C57Bl/6 mice; C57Bl/6 mice DRL-36-s, 100 mg/kg",no significant effects on behavior
same,Lever Presses Mean,C57Bl/6 mice; [6],233.00
same,Reinforcers Mean,C57Bl/6 mice; [6],11.00
same,Lever Presses Mean,[2]; [6],112.88
same,Reinforcers Mean,[2]; [6],25.13
same,"Reinforcers received, effect in words","[2]; mice lacking OX2 receptors, 100 mg/kg",did not significantly affect
same,Lever presses emitted,"[2]; mice lacking OX2 receptors, DRL-36-s, 100 mg/kg",65 % of control
same,"Functional antagonist activity, Kb hOX2",human OX2 receptors [3],inactive
same,Kb,human OX2 receptors [3],> 10000 nM
